Experimental findings from US3976695A, “Halogen substituted α-(aminoalkyl)-3,4-dihydroxybenzyl alcohols” (SmithKline Corporation, priority 1970, dated 1976) are described below.

Experiment [1] concerns guinea pig tracheal chain preparations. Nature of the experiment: relaxation of spontaneous tone of guinea pig tracheal chain (ring) preparation, β-stimulant effect on airway smooth muscle. To be noted: for absolute separation ratio: atrial ED25 versus tracheal ED50, in vitro guinea pig preparations. The text has this:
(§1) Two in vitro test systems used for determining selective β-stimulant activity are: (1) effect on spontaneous tone of guinea pig tracheal chain preparations as a measure of β-stimulant (direct relaxant) effect on airway smooth muscle, and (2) effect on rate of spontaneously beating right atria of the guinea pig as a measure if β-stimulant effect on cardiac muscle.

The subject of experiment [2] is right atria of the guinea pig. Nature of the experiment: rate of spontaneously beating guinea pig right atria, β-stimulant effect on cardiac muscle. To be noted: Cavia porcellus, in vitro, read-out: ED25, increasing the rate of contraction of guinea pig right atria.
From the text: as §1

Molecules are shown by their SMILES. Converted amounts (≈) assume the structure as drawn.

In the case of `CC(C)NCC(O)c1ccc(O)c(O)c1` (centres unmarked) [d, 1-isoproterenol, reference compound], the absolute separation ratio in experiment [1] is 0.5.
`CC(C)NCC(O)c1ccc(O)c(O)c1Cl` (stereo not drawn) [2-chloro-3,4-dihydroxy-α-(isopropylaminomethyl)-benzyl alcohol]: in experiment [1] (Cavia porcellus, in vitro, guinea pig tracheal ring preparation, read-out: ED50, relaxes the spontaneous tone of guinea pig tracheal ring preparation), the EC50 was determined as 0.23 ng/mL (≈ 0.936 nM). Besides, in experiment [1], the absolute separation ratio was determined as 7. Moreover, the “improvement of absolute separation ratio compared to d, 1-isoproterenol” value in experiment [1] (versus d, 1-isoproterenol in similar in vitro preparations) came out at 14 fold. For the same molecule, the EC25 in experiment [2] stood at 1.6 ng/mL (≈ 6.51 nM).
